Measured values as given in ChEMBL document CHEMBL3877299, “Imidazopyridine-fused [1,3]-diazepinones part 2: Structure-activity relationships and antiproliferative activity against melanoma cells” (Eur J Med Chem, 2017).

Assays:
Type in all cases: functional
[1] = Growth inhibition of human A498 cells assessed as cell growth at 10 uM incubated for 48 hrs by sulforhodamine B assay relative to control; settings: A498, 48 h, read-out: Activity
[2] = Growth inhibition of human MDA-MB-231 cells assessed as cell growth at 10 uM incubated for 48 hrs by sulforhodamine B assay relative to control; settings: MDA-MB-231, 48 h, read-out: Activity
[3] = Growth inhibition of human T47D cells assessed as cell growth at 10 uM incubated for 48 hrs by sulforhodamine B assay relative to control; settings: read-out: Activity
[4] = Growth inhibition of human SK-MEL-28 cells assessed as cell growth at 10 uM incubated for 48 hrs by sulforhodamine B assay relative to control; settings: SK-MEL-28, 48 h, read-out: Activity
[5] = Growth inhibition of human NCI-H226 cells assessed as cell growth at 10 uM incubated for 48 hrs by sulforhodamine B assay relative to control; settings: NCI-H226, 48 h, read-out: Activity
[6] = Growth inhibition of human NCI-H23 cells assessed as cell growth at 10 uM incubated for 48 hrs by sulforhodamine B assay relative to control; settings: NCI-H23, 48 h, read-out: Activity
[7] = Growth inhibition of human SF295 cells assessed as cell growth at 10 uM incubated for 48 hrs by sulforhodamine B assay relative to control; settings: SF-295, 48 h, read-out: Activity
[8] = Growth inhibition of human MDA-MB-468 cells assessed as cell growth at 10 uM incubated for 48 hrs by sulforhodamine B assay relative to control; settings: MDA-MB-468, 48 h, read-out: Activity
[9] = Growth inhibition of human NCI-H460 cells assessed as cell growth at 10 uM incubated for 48 hrs by sulforhodamine B assay relative to control; settings: NCI-H460, 48 h, read-out: Activity
[10] = Cytotoxicity against human MDA-MB-435 cells assessed as growth inhibition after 48 hrs by MTT assay; settings: MDA-MB-435, 48 h
[11] = Growth inhibition of human U251 cells assessed as cell growth at 10 uM incubated for 48 hrs by sulforhodamine B assay relative to control; settings: U-251, 48 h, read-out: Activity
[12] = Growth inhibition of human MOLT4 cells assessed as cell growth at 10 uM incubated for 48 hrs by sulforhodamine B assay relative to control; settings: MOLT-4, 48 h, read-out: Activity
[13] = Growth inhibition of human OVCAR8 cells assessed as cell growth at 10 uM incubated for 48 hrs by sulforhodamine B assay relative to control; settings: OVCAR-8, 48 h, read-out: Activity
[14] = Growth inhibition of human HCC2998 cells assessed as cell growth at 10 uM incubated for 48 hrs by sulforhodamine B assay relative to control; settings: HCC 2998, 48 h, read-out: Activity
[15] = Growth inhibition of human EKVX cells assessed as cell growth at 10 uM incubated for 48 hrs by sulforhodamine B assay relative to control; settings: read-out: Activity
[16] = Growth inhibition of human KM12 cells assessed as cell growth at 10 uM incubated for 48 hrs by sulforhodamine B assay relative to control; settings: KM12, 48 h, read-out: Activity
[17] = Growth inhibition of human HT-29 cells assessed as cell growth at 10 uM incubated for 48 hrs by sulforhodamine B assay relative to control; settings: HT-29, 48 h, read-out: Activity
[18] = Growth inhibition of human HL-60(TB) cells assessed as cell growth at 10 uM incubated for 48 hrs by sulforhodamine B assay relative to control; settings: HL-60, 48 h, read-out: Activity
[19] = Growth inhibition of human NCI-H322M cells assessed as cell growth at 10 uM incubated for 48 hrs by sulforhodamine B assay relative to control; settings: read-out: Activity
[20] = Growth inhibition of human TK10 cells assessed as cell growth at 10 uM incubated for 48 hrs by sulforhodamine B assay relative to control; settings: TK-10, 48 h, read-out: Activity
[21] = Growth inhibition of human MALME-3M cells assessed as cell growth at 10 uM incubated for 48 hrs by sulforhodamine B assay relative to control; settings: read-out: Activity
[22] = Growth inhibition of human NCI/ADR-RES cells assessed as cell growth at 10 uM incubated for 48 hrs by sulforhodamine B assay relative to control; settings: read-out: Activity
[23] = Growth inhibition of human Caki1 cells assessed as cell growth at 10 uM incubated for 48 hrs by sulforhodamine B assay relative to control; settings: CAKI-1, 48 h, read-out: Activity
[24] = Growth inhibition of human RPMI8226 cells assessed as cell growth at 10 uM incubated for 48 hrs by sulforhodamine B assay relative to control; settings: RPMI-8226, 48 h, read-out: Activity
[25] = Growth inhibition of human OVCAR5 cells assessed as cell growth at 10 uM incubated for 48 hrs by sulforhodamine B assay relative to control; settings: OVCAR-5, 48 h, read-out: Activity
[26] = Growth inhibition of human HCT116 cells assessed as cell growth at 10 uM incubated for 48 hrs by sulforhodamine B assay relative to control; settings: HCT-116, 48 h, read-out: Activity
[27] = Growth inhibition of human SW620 cells assessed as cell growth at 10 uM incubated for 48 hrs by sulforhodamine B assay relative to control; settings: SW-620, 48 h, read-out: Activity
[28] = Growth inhibition of human SK-MEL-5 cells assessed as cell growth at 10 uM incubated for 48 hrs by sulforhodamine B assay relative to control; settings: SK-MEL-5, 48 h, read-out: Activity
[29] = Growth inhibition of human UO31 cells assessed as cell growth at 10 uM incubated for 48 hrs by sulforhodamine B assay relative to control; settings: UO-31, 48 h, read-out: Activity
[30] = Growth inhibition of human OVCAR3 cells assessed as cell growth at 10 uM incubated for 48 hrs by sulforhodamine B assay relative to control; settings: OVCAR-3, 48 h, read-out: Activity
[31] = Growth inhibition of human SK-MEL-2 cells assessed as cell growth at 10 uM incubated for 48 hrs by sulforhodamine B assay relative to control; settings: SK-MEL-2, 48 h, read-out: Activity
[32] = Growth inhibition of human CCRF-CEM cells assessed as cell growth at 10 uM incubated for 48 hrs by sulforhodamine B assay relative to control; settings: read-out: Activity
[33] = Growth inhibition of human 786-0 cells assessed as cell growth at 10 uM incubated for 48 hrs by sulforhodamine B assay relative to control; settings: 786-0, 48 h, read-out: Activity
[34] = Growth inhibition of human SN12C cells assessed as cell growth at 10 uM incubated for 48 hrs by sulforhodamine B assay relative to control; settings: read-out: Activity
[35] = Growth inhibition of human Hs 578T cells assessed as cell growth at 10 uM incubated for 48 hrs by sulforhodamine B assay relative to control; settings: read-out: Activity
[36] = Growth inhibition of human IGROV1 cells assessed as cell growth at 10 uM incubated for 48 hrs by sulforhodamine B assay relative to control; settings: IGROV-1, 48 h, read-out: Activity

Row | Compound | growth at 10 µM [1] [%] | growth at 10 µM [2] [%] | growth at 10 µM [3] [%] | growth at 10 µM [4] [%] | growth at 10 µM [5] [%] | growth at 10 µM [6] [%] | growth at 10 µM [7] [%] | growth at 10 µM [8] [%] | growth at 10 µM [9] [%] | GI50 [10] [nM] | growth at 10 µM [11] [%] | growth at 10 µM [12] [%] | growth at 10 µM [13] [%] | growth at 10 µM [14] [%] | growth at 10 µM [15] [%] | growth at 10 µM [16] [%] | growth at 10 µM [17] [%] | growth at 10 µM [18] [%] | growth at 10 µM [19] [%] | growth at 10 µM [20] [%] | other results
1 | CC(C)(C)OC[C@@H]1NC(c2ccc(Br)cc2)=Nc2nc3ccccn3c2C1=O | 66.9 | 61.5 | 61.9 | 68.6 | 78.1 | 71.5 | 30.9 | 45.6 | 41.3 | 950 | 63.5 | 53.7 | 79.5 | 90.9 | 81.6 | 49 | 21.8 | 33.1 | 84.8 | 95.1 | growth at 10 µM [21]: 51.5%; growth at 10 µM [22]: 39.7%; growth at 10 µM [23]: 64.2%; growth at 10 µM [24]: 67.5%; growth at 10 µM [25]: 105%; growth at 10 µM [26]: 43.7%; growth at 10 µM [27]: 40.3%; growth at 10 µM [28]: 38.4%; growth at 10 µM [29]: 52.1%; growth at 10 µM [30]: 34.2%; growth at 10 µM [31]: 49.2%; growth at 10 µM [32]: 67.8%; growth at 10 µM [33]: 94.2%; growth at 10 µM [34]: 84.1%; growth at 10 µM [35]: 65.2%; growth at 10 µM [36]: 40.8%
2 | C[C@@H]1NC(c2ccc(Cl)cc2)=Nc2nc3ccccn3c2C1=O | 118 | 76 | 81.4 | 92.8 | 88 | 81.4 | 92.4 | 97.9 | 96.1 | 5000 | 92.5 | 88.5 | 90.3 | 91.6 | 92.4 | 64.2 | 85.4 | 102 | 87 | 114 | growth at 10 µM [21]: 76.2%; growth at 10 µM [22]: 85.6%; growth at 10 µM [23]: 84.6%; growth at 10 µM [24]: 91.3%; growth at 10 µM [25]: 109%; growth at 10 µM [26]: 97%; growth at 10 µM [27]: 83.6%; growth at 10 µM [28]: 87.7%; growth at 10 µM [29]: 68.2%; growth at 10 µM [30]: 84.3%; growth at 10 µM [31]: 84.8%; growth at 10 µM [32]: 90.8%; growth at 10 µM [33]: 108%; growth at 10 µM [34]: 96.8%; growth at 10 µM [35]: 87.1%; growth at 10 µM [36]: 50.7%
3 | C[C@@H]1NC(c2ccc(Cl)cc2Cl)=Nc2nc3ccccn3c2C1=O | 60.7 | 64.6 | 64.3 | 60.7 | 75.7 | 61.4 | 14.5 | 53.9 | 18.7 | 1150 | 41.4 | 50.4 | 68.1 | 75.4 | 82.5 | 23.8 | 7.68 | 0.46 | 63.6 | 74.5 | growth at 10 µM [21]: 43.7%; growth at 10 µM [22]: 44.5%; growth at 10 µM [23]: 47.2%; growth at 10 µM [24]: 75.2%; growth at 10 µM [25]: 91.2%; growth at 10 µM [26]: 28.1%; growth at 10 µM [27]: 25.2%; growth at 10 µM [28]: 39.6%; growth at 10 µM [29]: 52.4%; growth at 10 µM [30]: 2.44%; growth at 10 µM [31]: 38.2%; growth at 10 µM [32]: 56.6%; growth at 10 µM [33]: 73.2%; growth at 10 µM [34]: 75.8%; growth at 10 µM [35]: 52%; growth at 10 µM [36]: 41.9%
